Assays:
[1] = tested on: lung allograft rejection (BN donor into F344 recipient); test: Histological evaluation of acute rejection (IWF rejection score) of rat lung allografts on day 7; assay type: in vivo
Method: Methods. Orthotopic left lung allotransplantation was performed from Brown Norway (donor) to Fisher 344 (recipient) rats. The role of activated neutrophils in the development of allograft rejection is believed to be biphasic. Therefore, specific CXC receptor inhibition was used with antileukinate in two dosing regimens. Recipients were allocated into 4 groups: A (early administration: n=6) received two doses of antileukinate (a hexapeptide), 10.0 mg/kg intramuscularly 24 hours before and immediately after transplantation, B (continuous administration: n=8) animals continuously received antileukinate intraperitoneally (10.0 mg/kg/day) for 7 days after surgery. Experimental groups A or B were compared with their individual control that received saline alone (Cont-A and Cont-B). The progression of rejection was assessed radiographically. Each animal was sacrificed on day 7 for histologic evaluation of allograft rejection based on pathologic rejection grade. Transplant Model. Rat left-lung transplantation was performed in a RT1 (MHC) incompatible donor-recipient combination from a BN donor into a F344 recipient. Complete graft rejection in this severely mismatched combination would be expected histologically and radiographically on day 7 postoperatively. […]

[2] = tested on: lung allograft rejection (BN donor into F344 recipient); test: Radiographic evaluation (aeration score) of transplanted lungs; assay type: in vivo, rat; conditions: for aeration score (AS) of representative chest radiograph: day 7
Method: Methods. Orthotopic left lung allotransplantation was performed from Brown Norway (donor) to Fisher 344 (recipient) rats. The role of activated neutrophils in the development of allograft rejection is believed to be biphasic. Therefore, specific CXC receptor inhibition was used with antileukinate in two dosing regimens. Recipients were allocated into 4 groups: A (early administration: n=6) received two doses of antileukinate (a hexapeptide), 10.0 mg/kg intramuscularly 24 hours before and immediately after transplantation, B (continuous administration: n=8) animals continuously received antileukinate intraperitoneally (10.0 mg/kg/day) for 7 days after surgery. Experimental groups A or B were compared with their individual control that received saline alone (Cont-A and Cont-B). The progression of rejection was assessed radiographically. Each animal was sacrificed on day 7 for histologic evaluation of allograft rejection based on pathologic rejection grade. Transplant Model. Rat left-lung transplantation was performed in a RT1 (MHC) incompatible donor-recipient combination from a BN donor into a F344 recipient. Complete graft rejection in this severely mismatched combination would be expected histologically and radiographically on day 7 postoperatively. The orthotopic left-lung transplantation procedure used in this study was a modification of the ‘cuff’ technique for vascular anastomosis (Mizuta et al., 1989). In brief, the lung grafts were flushed and immersed in ice-cold normal saline solution before implantation. Cuffs with internal diameters of 1.65 mm and 2.20 mm for pulmonary arterial and venous anastomosis, respectively, were used. The left main bronchus was anastomosed using 8-0 prolene running sutures. In rats, radiographic assessment of a left-lung transplantation graft can be obscured by the right lung. Therefore, a postcaval lobectomy on the recipient's right lung was performed immediately after implantation so as to facilitate radiographic assessment of the left-lung allograft. […] Experimental groups. Recipient animals were divided into 4 groups (Table 1). Animals from group A (early administration; n=6) received 0.5 ml of phosphate-buffered saline (PBS) solution containing a 10.0 mg/kg concentration of antileukinate intramuscularly 24 hours before (day −1) and immediately after transplantation (day 0). The control group against group A (Cont-A) received 0.5 ml of PBS in a similar fashion. Allograft recipients from group B (continuous administration; n=8) were given continuous antileukinate administration intraperitoneally for 7 days after transplantation, starting immediately after surgery using a micro-osmotic pump which was implanted into the peritoneal cavity two hours before lung transplantation. Antileukinate was released into the recipient's peritoneal cavity continuously at a dose of 10.0 mg/kg/day from days 0 to 7. Animals from Cont-B served as the control group against group B receiving the same amount of PBS without antileukinate in the same manner. Implantation of micro-osmotic pumps for groups B and Cont-B. Micro-osmotic pumps (model 2001; Alzet Corp., distributed by Charles River Laboratories, Sulzfeld, Germany) were used for intraperitoneal delivery of antileukinate. […] Transplanted lungs were serially assessed every other day by chest roentgenogram under spontaneous ventilation with halothane for sedation. […] Briefly, it was evaluated and graded 0 for an opaque lung, and up to 6 for a normal-appearing lung. […]

[3] = tested on: neutrophils in the lung allograft; test: Number of neutrophils infiltrated into lung grafts; assay type: in vivo, rat; conditions: day 7
Method: Transplant Model. Rat left-lung transplantation was performed in a RT1 (MHC) incompatible donor-recipient combination from a BN donor into a F344 recipient. Complete graft rejection in this severely mismatched combination would be expected histologically and radiographically on day 7 postoperatively. The orthotopic left-lung transplantation procedure used in this study was a modification of the ‘cuff’ technique for vascular anastomosis (Mizuta et al., 1989). In brief, the lung grafts were flushed and immersed in ice-cold normal saline solution before implantation. Cuffs with internal diameters of 1.65 mm and 2.20 mm for pulmonary arterial and venous anastomosis, respectively, were used. […] Acute rejection was evaluated histologically and assigned a rejection score (RS) based on the clinical international working formulation: IWF grade 0, no significant abnormality; grade 1, scattered infrequent perivascular mononuclear infiltration; grade 2, frequent perivascular mononuclear infiltration; grade 3, extension of mononuclear infiltration into alveolar septum/space; and grade 4, diffuse perivascular, interstitial, and air space infiltration of mononuclear cells. The number of neutrophils was counted in a blinded fashion in 10 random fields per slide at ×1000 magnification. […] The data were expressed as mean±standard deviation. […]

[4] = tested on: lung allograft (BN donor into F344 recipient); test: Macroscopic findings of the allograft on day 7; assay type: in vivo, rat; conditions: controls: complete consolidation without aeration
Method: Transplant Model. Rat left-lung transplantation was performed in a RT1 (MHC) incompatible donor-recipient combination from a BN donor into a F344 recipient. Complete graft rejection in this severely mismatched combination would be expected histologically and radiographically on day 7 postoperatively. The orthotopic left-lung transplantation procedure used in this study was a modification of the ‘cuff’ technique for vascular anastomosis (Mizuta et al., 1989). In brief, the lung grafts were flushed and immersed in ice-cold normal saline solution before implantation. Cuffs with internal diameters of 1.65 mm and 2.20 mm for pulmonary arterial and venous anastomosis, respectively, were used. The left main bronchus was anastomosed using 8-0 prolene running sutures. In rats, radiographic assessment of a left-lung transplantation graft can be obscured by the right lung. Therefore, a postcaval lobectomy on the recipient's right lung was performed immediately after implantation so as to facilitate radiographic assessment of the left-lung allograft. […] Experimental groups. Recipient animals were divided into 4 groups (Table 1). Animals from group A (early administration; n=6) received 0.5 ml of phosphate-buffered saline (PBS) solution containing a 10.0 mg/kg concentration of antileukinate intramuscularly 24 hours before (day −1) and immediately after transplantation (day 0). […]

[5] = group B (continuous administration)

With Ac-RRWWCR-NH2 [antileukinate] the “rejection score (RS) of representative allograft” value ([1]; group B (continuous administration), day 7, representative histology) was 1, the “histologic rejection score (IWF), mean±standard deviation” value ([1]; group B: continuous ip 10.0 mg/kg/day days 0 to 7, n=8, day 7, Cont-B 3.3±0.5, p=0.018, scale 0-4) was 2.1±1.0 and the “aeration score versus control at each time point” value ([2]; group A (early administration) versus Cont-A) was “No significant differences”. The “aeration score (AS) of representative chest radiograph” value ([2]; group A (early administration)) was 6, the “aeration score versus control at each time point” value ([2]; group B (continuous administration) versus Cont-B) was “No significant differences” and the “aeration score (AS) of representative chest radiograph” value [2, 5] was 5. The “aeration score (AS) on day 7, mean±standard deviation” value ([2]; group B: continuous ip 10.0 mg/kg/day, Cont-B 1.6±1.3, p=0.16, score 0=opaque to 6=normal-appearing lung) was 2.6±2.1, the “neutrophil count in the graft” value ([3]; group A: 10.0 mg/kg im day -1 and day 0, Cont-A 55.7±10.0, p=0.093) was 34.8±28.7 /10HPFs and the “neutrophil count in the graft” value ([3]; group B: continuous ip 10.0 mg/kg/day, Cont-B 47.9±18.4, p=0.046) was 32.1±9.6 /10 HPFs. For the same substance, the “macroscopic finding of the allograft” value ([4]; group A (early administration)) was “macroscopically adequate ventilation” and the “macroscopic finding of the allograft” value [4, 5] was “macroscopically adequate ventilation”.

— patent US20090131329A1, “Treatment for allograft rejection” (priority 2007, published 2009)
